Source: PMC9855333, “1-(Arylsulfonyl-isoindol-2-yl)piperazines as 5-HT6R Antagonists: Mechanochemical Synthesis, In Vitro Pharmacological Properties and Glioprotective Activity” (Biomolecules, 2022)
Values joined by “and” are separate entries in the source; they are usually repeats but may differ in a detail not shown here. Equal values may be shown once.

Tests used:
5-HT6R [1] = biological target: T1, 5-HT6R (Homo sapiens, UniProt P50406); test: Radioligand binding, [3H]-LSD displacement, HEK-293 cells; set-up: expressed in transfected cells; settings: Table 1; HEK293 cells; three independent binding experiments; read-out: Ki [nM] ± SEM at the 5-HT6R
T1 sequence (P50406 whole entry): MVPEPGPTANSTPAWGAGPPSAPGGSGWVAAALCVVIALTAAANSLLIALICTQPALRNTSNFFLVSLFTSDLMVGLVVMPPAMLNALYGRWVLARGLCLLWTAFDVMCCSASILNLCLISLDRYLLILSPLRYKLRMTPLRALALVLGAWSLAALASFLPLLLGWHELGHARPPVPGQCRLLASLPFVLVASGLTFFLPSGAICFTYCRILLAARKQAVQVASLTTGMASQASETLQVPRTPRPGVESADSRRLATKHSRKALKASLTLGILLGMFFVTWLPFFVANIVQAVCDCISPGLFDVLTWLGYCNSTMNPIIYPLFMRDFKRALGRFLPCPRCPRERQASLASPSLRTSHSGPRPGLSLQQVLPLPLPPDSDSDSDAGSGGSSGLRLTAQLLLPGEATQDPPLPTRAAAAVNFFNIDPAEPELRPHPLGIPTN
Procedure: All experiments were performed in HEK-293 cells, which stably express the human 5-HT1A, 5-HT6, 5-HT7b, and D2L receptors, or using CHO-K1 cells expressing human serotonin 5-HT2A receptor, following the previously reported procedures. For displacement studies, the following radioligands (PerkinElmer, USA) at given concentrations were used at: 2.5 nM [^3H]-8-OH-DPAT (135.2 Ci/ mmol); 1 nM [^3H]-ketanserin (53.4 Ci/mmol); 2 nM [^3H]-LSD (83.6 Ci/mmol); 0.8 nM [^3H]-5-CT (39.2 Ci/mmol) or 2.5 nM [^3H]-raclopride (76.0 Ci/mmol) for 5-HT1A, 5-HT2A, 5-HT6, 5-HT7b and D2L receptors, respectively. All tested compounds were evaluated in triplicate at 7 concentrations (10^−10–10^−4 M). The inhibition constants (Ki) were calculated from the Cheng–Prusoff equation [25]. A detailed description is reported in the Supporting Information.
All synthesized compounds were evaluated in ^3[H]-LSD competition binding experiments for their affinity for 5-HT6R expressed in HEK-293 cells (Table 1). Embedding the sulfonamide moiety into an unsubstituted isoindoline scaffold was sufficient to provide potent compounds 3a and 3e. […] This effect might result from the favorable localization of the bromine atom at the isoindoline fragment, which enabled compound 3k to adopt an optimal position in the receptor binding pocket via the formation of hydrophobic/steric interactions.
1. Procedure for radioligand binding assay
All experiments were carried out according to the previously published procedures. HEK293 cells stably expressing human 5-HT1A, 5-HT6, 5-HT7b and D2L receptors (prepared with the use of Lipofectamine 2000) or CHO-K1 cells with plasmid containing the sequence coding for the human serotonin 5-HT2A receptor (Perkin Elmer) were maintained at 37 °C in a humidified atmosphere containing 5% CO2 and grown in Dulbecco’s Modified Eagle’s Medium containing 10% dialyzed fetal bovine serum and 500 μg/ml G418 sulfate. For membrane preparation, cells were cultured in 150 cm2 flasks, grown to 90% confluence, washed twice with pre-warmed to 37 °C phosphate buffered saline (PBS) and centrifuged (200 × g) in PBS containing 0.1 mM EDTA and 1 mM dithiothreitol. Prior to membrane preparation, pellets were stored at –80 °C. Cell pellets were thawed and homogenized in 10 volumes of assay buffer using an Ultra Turrax tissue homogenizer and centrifuged twice at 35,000 × g for 15 min at 4 °C, with incubation for 15 min at 37 °C between the centrifugations. The composition of the assay buffers was experimentally selected to achieve the […]
5-HT1AR: 50 mM Tris HCl, 0.1 mM EDTA, 4 mM MgCl2, 10 μM pargyline and 0.1% ascorbate; 5-HT2AR: 50 mM Tris HCl, 0.1 mM EDTA, 4 mM MgCl2 and 0.1% ascorbate;
5-HT6R: 50 mM Tris HCl, 0.5 mM EDTA and 4 mM MgCl2; 5-HT7bR: 50 mM Tris HCl, 4 mM MgCl2, 10 μM pargyline and 0.1% ascorbate; D2LR: 50 mM Tris HCl, 1 mM EDTA, 4 mM MgCl2, 120 mM NaCl, 5 mM KCl, 1.5 mM CaCl2 and 0.1% ascorbate).
All assays were carried out in a total volume of 200 μL in 96-well plates for 1 h at 37 °C, except 5-HT1AR and 5-HT2AR which were incubated at room temperature and 27 °C, respectively.
The process of equilibration was terminated by rapid filtration through Unifilter plates with a 96-well cell harvester and radioactivity retained on the filters was quantified on a Microbeta plate reader (PerkinElmer, USA). For displacement studies the assay samples contained as radioligands (PerkinElmer, USA): 2.5 nM [3H]-8-OH-DPAT (135.2 Ci/ mmol) for 5-HT1AR; 1 nM [3H]-ketanserin (53.4 Ci/mmol) for 5-HT2AR; 2 nM [3H]-LSD (83.6 Ci/mmol) for 5-HT6R; 0.8 nM [3H]-5-CT (39.2 Ci/mmol) for 5-HT7R or 2.5 nM [3H]-raclopride (76.0 Ci/mmol) for D2LR. Non-specific binding was defined in the presence of 10 μM of 5-HT in 5-HT1AR and 5-HT7R binding experiments, 20 μM of mianserin for 5-HT2AR, 10 μM of methiothepine for 5-HT6R or 10 μM of haloperidol for D2LR bidning assays. Each compound was tested in triplicate at 7 concentrations (10-10–10-4 M). The inhibition constants (Ki) were calculated […]

C8-D1A astrocytes [2] = test: Glioprotection against 6-OHDA-induced cytotoxicity, MTT; assay type: cell-based, mouse; settings: compound 0.25 µM, 6-OHDA 20 µM, 24 h
Procedure: (§1) Mouse astrocytes (C8-D1A cell line, ATCC) were cultured in DMEM (Dulbecco’s Modified Eagle’s Medium) supplemented with 10% FBS (FBS; Gibco, Life Technologies, Carlsbad, CA, USA) and 1% antibiotic mixture (Gibco, Life Technologies, Carlsbad, CA, USA) at standard condition until the cells reached 80–90% confluence. Cells were harvested and seeded in 96-well plates at a density of 5000 cells/well. All experiments were conducted with a reduced amount of serum equal to 2.5%. The optimal amount of serum was determined experimentally on the basis of preliminary studies. […] Then 6-OHDA (20 µM) or rotenone (0.5 µM) were added and co-incubated for the next 24 h. The ability of tested compounds to prevent 6-OHDA-induced or rotenone-induced cytotoxicity was assessed by MTT assay following the protocol described above. The experiments were run three times in triplicates.
(§2) Considering the pivotal physiological role of astrocytes in contrasting oxidative stress and promoting tissue repair, supporting their neuroprotective function might be regarded as a tangible strategy to improve the current therapeutic needs in the treatment of neurodegenerative disorders. […] For this purpose, cells were co-incubated with the evaluated compounds (at the non-toxic concentration of 0.25 µM) and 6-OHDA or ROT (20 and 0.5 µM, respectively). After 24 h of incubation, the viability of astrocytes was determined using the MTT assay.

C8-D1A astrocytes [3] = test: Glioprotection against rotenone-induced cytotoxicity, MTT; assay type: cell-based, mouse; settings: compound 0.25 µM, rotenone 0.5 µM, 24 h
Procedure: as §1, §2

[4] = Cytotoxicity, MTT test, SH-SY5Y; assay type: cell-based; settings: human, SH-SY5Y cells (human neuroblastoma)
Procedure: (§3) Hepatotoxicity, neurotoxicity, and glial cytotoxicity were investigated using the following cellular models: human hepatocellular carcinoma (HepG2), human neuroblastoma (SHSY-5Y), and mouse astrocytes (C8-D1A), all from ATCC (American Type Culture Collection, Manassas, VA, USA). Cells were cultured in appropriate culture media recommended by ATCC supplemented with 10% fetal bovine serum (FBS; Gibco, Life Technologies, Carlsbad, CA, USA) and 1% antibiotic mixture (Gibco, Life Technologies, Carlsbad, CA, USA). Cells were cultured at standard conditions (5% CO2, 95% humidity, 37 °C). For cytotoxicity experiments, cells were seeded into 96 well plates at an initial density of 2000 cells/well. After overnight incubation, cells were treated with 3e, 3f, and 3g in a concentration range of 0.78–50 µM for 48 h; then, an MTT assay was performed as described previously. Briefly, following cell exposure, 10 µL of MTT reagent was added to each well. After the next 4 h, the medium was aspirated, and formazan produced in cells appeared as dark crystals in the bottom of the wells. Next, 100 µL DMSO was added to each well. Then, the optical density of the solution (OD) at 570 nm was determined on a plate reader (Spectra Max iD3, Molecular Devices, San Jose, CA, USA). The experiments were run three times in triplicates.

[5] = Cytotoxicity, MTT test, C8-D1A; assay type: cell-based; settings: mouse, C8-D1A cells (mouse astrocytes)
Procedure: as §3

[6] = Cytotoxicity, MTT test, HepG2; assay type: cell-based; settings: human, HepG2 cells (human hepatocellular carcinoma)
Procedure: as §3

5-HT6R [7] = biological target: T1, 5-HT6R; set-up: expressed in transfected cells; host or cells: NG108-15 (mouse neuroblastoma x rat glioma hybrid), transient co-transfection with CAMYEL, Lipofectamine 2000; settings: Figure 1; cited from earlier work
[8] = system: 5-HT6R-operated Cdk5 signaling; settings: Figure 1; cited from earlier work

Structure (SMILES) | Ki (5-HT6R [1]) | also measured
O=S(=O)(c1ccc(N2CCNCC2)cc1)N1Cc2ccccc2C1 [3a, 2-{[4-(Piperazin-1-yl)phenyl]sulfonyl}isoindoline] | 6 ± 1 nM | –
O=S(=O)(c1ccc(N2CCNCC2)cc1)N1Cc2cccc(Cl)c2C1 [3b, 4-Chloro-2-{[4-(piperazin-1-yl)phenyl]sulfonyl}isoindoline] | 7 ± 1 nM | –
O=S(=O)(c1ccc(N2CCNCC2)cc1)N1Cc2cccc(Br)c2C1 [3c, 4-Bromo-2-{[4-(piperazin-1-yl)phenyl]sulfonyl}isoindoline] | 10 ± 2 nM | –
O=S(=O)(c1ccc(N2CCNCC2)cc1)N1Cc2ccc(Br)cc2C1 [3d, 5-Bromo-2-{[4-(piperazin-1-yl)phenyl]sulfonyl}isoindoline] | 87 ± 12 nM | –
O=S(=O)(c1cccc(N2CCNCC2)c1)N1Cc2ccc(Br)cc2C1 [3h, 5-Bromo-2-{[3-(piperazin-1-yl)phenyl]sulfonyl}isoindoline] | < 5 nM and 4 nM | –
O=S(=O)(c1ccccc1N1CCNCC1)N1Cc2ccccc2C1 [3i, 2-{[2-(Piperazin-1-yl)phenyl]sulfonyl}isoindoline] | > 900 nM and 977 nM | –
O=S(=O)(c1ccccc1N1CCNCC1)N1Cc2cccc(Cl)c2C1 [3j, 4-Chloro-2-{[2-(piperazin-1-yl)phenyl]sulfonyl}isoindoline] | > 900 nM and 918 nM | –
O=S(=O)(c1ccccc1N1CCNCC1)N1Cc2cccc(Br)c2C1 [3k, 4-Bromo-2-{[2-(piperazin-1-yl)phenyl]sulfonyl}isoindoline] | 32 ± 5 nM | –
O=S(=O)(c1ccccc1N1CCNCC1)N1Cc2ccc(Br)cc2C1 [3l, 5-Bromo-2-{[2-(piperazin-1-yl)phenyl]sulfonyl}isoindoline] | > 900 nM and 1170 nM | –
O=S(=O)(c1cccc(Cl)c1)n1ccc2c(N[C@H]3CCNC3)nc3ccccc3c21 [CPPQ, (S)-1-[(3-chlorophenyl)sulfonyl]-4-(pyrrolidine-3-yl-amino)-1H-pyrrolo[3,2-c]quinoline] | – | effect on 6-OHDA-induced cytotoxicity (C8-D1A astrocytes [2]): decreased the cytotoxicity; effect on ROT-induced cytotoxicity (C8-D1A astrocytes [3]): decreased the cytotoxicity
COc1cccc2c1C(=O)c1c(O)c3c(c(O)c1C2=O)C[C@@](O)(C(=O)CO)C[C@@H]3O[C@H]1C[C@H](N)[C@H](O)[C@H](C)O1 [Doxorubicin, reference compound] | – | IC50 at 48 h [4]: 4400 nM; IC50 at 48 h [5]: 12300 nM; IC50 at 48 h [6]: 10800 nM
O=C(N[C@@H]1CCNC1)c1ccn(S(=O)(=O)c2cccc(Cl)c2)c1-c1ccc(F)cc1 [I] | – | Functional profile at Gs (5-HT6R [7]): Inverse agonist; Functional profile at Cdk5 [8]: Inverse agonist
NCCc1cn(S(=O)(=O)c2c(Cl)nc3sccn23)c2ccccc12 [WAY-181187] | – | effect on 6-OHDA-induced cytotoxicity (C8-D1A astrocytes [2]): slightly but not significantly enhanced the gliotoxic effects; effect on ROT-induced cytotoxicity (C8-D1A astrocytes [3]): slightly but not significantly enhanced the gliotoxic effects
